# Data taken from patent publication US20240209028A1, “CNP COMPOUNDS” (priority 2022, published 2024).
# Starred links: 1 amine or outer side, 2 acyl side, 3 side chain; linkers in the order of their positions; H or OH if unused. Positions of bridges follow the written chain, without caps; N, C: chain ends. Residues, ends and D or L forms follow the SMILES beside them. *: point of attachment. C18 diacid = O=C(O)CCCCCCCCCCCCCCCCC(=O)*; γGlu = O=C(O)[C@H](CCC(=O)[*:2])N[*:1]; AEEA = NCCOCCOCC(=O)O
# Target: T1, human natriuretic peptide receptor 2 (hNPR2) (Homo sapiens, UniProt P20594)
# T1 construct: expressed in transfected cells; host or cells: HEK293 (ATCC CRL-1573), clone 35, co-transfected with pGloSensor-42F
# T1 sequence (P20594 23-1047): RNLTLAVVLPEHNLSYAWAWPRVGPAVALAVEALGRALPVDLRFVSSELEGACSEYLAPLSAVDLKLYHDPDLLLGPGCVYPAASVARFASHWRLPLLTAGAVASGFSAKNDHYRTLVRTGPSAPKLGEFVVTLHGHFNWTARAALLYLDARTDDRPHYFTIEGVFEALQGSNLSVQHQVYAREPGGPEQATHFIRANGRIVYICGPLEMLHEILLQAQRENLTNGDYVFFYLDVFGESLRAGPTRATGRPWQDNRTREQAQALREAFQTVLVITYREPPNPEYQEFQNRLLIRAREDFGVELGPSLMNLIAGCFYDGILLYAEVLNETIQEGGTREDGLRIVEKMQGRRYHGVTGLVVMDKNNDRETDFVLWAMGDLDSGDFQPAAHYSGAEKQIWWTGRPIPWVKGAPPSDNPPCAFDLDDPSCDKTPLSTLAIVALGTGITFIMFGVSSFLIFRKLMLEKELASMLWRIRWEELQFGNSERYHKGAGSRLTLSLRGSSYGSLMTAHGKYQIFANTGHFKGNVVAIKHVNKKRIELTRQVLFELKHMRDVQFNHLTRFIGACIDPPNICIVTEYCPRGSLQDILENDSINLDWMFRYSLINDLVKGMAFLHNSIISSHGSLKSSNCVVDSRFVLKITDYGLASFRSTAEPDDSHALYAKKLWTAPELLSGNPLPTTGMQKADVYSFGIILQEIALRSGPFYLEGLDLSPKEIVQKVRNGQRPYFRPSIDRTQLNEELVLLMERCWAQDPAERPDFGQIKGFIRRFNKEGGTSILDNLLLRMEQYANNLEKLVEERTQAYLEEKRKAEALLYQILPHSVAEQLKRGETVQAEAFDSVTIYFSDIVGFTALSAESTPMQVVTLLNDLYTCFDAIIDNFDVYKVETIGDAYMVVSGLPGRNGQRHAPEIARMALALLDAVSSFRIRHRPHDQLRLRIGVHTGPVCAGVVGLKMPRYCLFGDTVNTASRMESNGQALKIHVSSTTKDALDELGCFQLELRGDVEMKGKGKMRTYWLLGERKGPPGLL
# Test: In vitro hNPR2 activity assay (cGMP GloSensor reporter, HEK293)
# Type: cell-based
# Settings: potency relative to CNP22 (0065)
# Outline: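 Potency is the EC50 from a four-parameter logistic fit, also expressed relative to the in-plate CNP22 control (×100), with at least two replicates. Compounds (ten concentrations, […], HSA-free diluent with 1% OVA, 0.01% Tween20) were incubated 30 min at 37 °C on HEK293 cells co-expressing hNPR2 and a GloSensor cGMP luciferase. Luminescence detected with Bright-Glo.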
row,SMILES,hNPR2 0% HSA. [EC50% rel CNP] [%]
1,CC[C@H](C)[C@@H]1NC(=O)[C@H](CCCNC(=N)N)NC(=O)[C@H](CC(=O)O)NC(=O)[C@H](CC(C)C)NC(=O)[C@@H]2CCCN2C(=O)[C@H](CC(C)C)NC(=O)CNC(=O)[C@H](Cc2ccccc2)NC(=O)[C@@H](NC(=O)CNC(=O)[C@H](CCC(N)=O)NC(=O)[C@H](CO)NC(=O)[C@H](CC(C)C)NC(=O)CNC(=O)[C@H](CCCCN)NC(=O)[C@H](CCCCN)NC(=O)[C@H](CCC(N)=O)NC(=O)[C@H](C)NC(=O)CNC(=O)[C@H](CCCCN)NC(=O)[C@H](Cc2ccc(O)cc2)NC(=O)[C@H](CCCCN)NC(=O)[C@H](CCCNC(=N)N)NC(=O)[C@H](C)NC(=O)COCCOCCNC(=O)COCCOCCNC(=O)COCCOCCNC(=O)CC[C@H](NC(=O)CC[C@H](NC(=O)CC[C@H](NC(=O)CC[C@H](NC(=O)CCCCCCCCCCCCCCCCC(=O)O)C(=O)O)C(=O)O)C(=O)O)C(=O)O)CSSC[C@@H](C(=O)O)NC(=O)CNC(=O)[C@H](CC(C)C)NC(=O)CNC(=O)[C@H](CO)NC(=O)[C@H](CC(C)C)NC(=O)[C@H](CO)NC(=O)CNC1=O [compound 1455] ({C18 diacid-γGlu-γGlu-γGlu-γGlu-AEEA-AEEA-AEEA}-ARKYKGAQKKGLSQGCFGLPLDRIGSLSGLGC-OH; disulfide 16-32),43.4
2,CC[C@H](C)[C@@H]1NC(=O)[C@H](CCCNC(=N)N)NC(=O)[C@H](CC(=O)O)NC(=O)[C@H](CC(C)C)NC(=O)[C@@H]2CCCN2C(=O)[C@H](CC(C)C)NC(=O)CNC(=O)[C@H](Cc2ccccc2)NC(=O)[C@@H](NC(=O)CNC(=O)[C@H](CCC(N)=O)NC(=O)[C@H](CO)NC(=O)[C@H](CC(C)C)NC(=O)CNC(=O)[C@H](CCCCN)NC(=O)[C@H](CCCCN)NC(=O)[C@H](CCC(N)=O)NC(=O)[C@H](C)NC(=O)CNC(=O)[C@H](CCCCN)NC(=O)[C@H](Cc2ccc(O)cc2)NC(=O)[C@H](CCCCN)NC(=O)[C@H](CCCNC(=N)N)NC(=O)[C@H](C)NC(=O)COCCOCCNC(=O)COCCOCCNC(=O)CC[C@H](NC(=O)CC[C@H](NC(=O)CC[C@H](NC(=O)CC[C@H](NC(=O)CCCCCCCCCCCCCCCCC(=O)O)C(=O)O)C(=O)O)C(=O)O)C(=O)O)CSSC[C@@H](C(=O)O)NC(=O)CNC(=O)[C@H](CC(C)C)NC(=O)CNC(=O)[C@H](CO)NC(=O)[C@H](CC(C)C)NC(=O)[C@H](CO)NC(=O)CNC1=O [compound 1456] ({C18 diacid-γGlu-γGlu-γGlu-γGlu-AEEA-AEEA}-ARKYKGAQKKGLSQGCFGLPLDRIGSLSGLGC-OH; disulfide 16-32),50.4
3,CC[C@H](C)[C@@H]1NC(=O)[C@H](CCCNC(=N)N)NC(=O)[C@H](CC(=O)O)NC(=O)[C@H](CC(C)C)NC(=O)[C@@H]2CCCN2C(=O)[C@H](CC(C)C)NC(=O)CNC(=O)[C@H](Cc2ccccc2)NC(=O)[C@@H](NC(=O)CNC(=O)[C@H](CCC(N)=O)NC(=O)[C@H](CO)NC(=O)[C@H](CO)NC(=O)CNC(=O)[C@H](CCCCN)NC(=O)[C@H](CCCCN)NC(=O)[C@H](CCC(N)=O)NC(=O)[C@H](C)NC(=O)CNC(=O)[C@@H]2CCCN2C(=O)[C@H](C)NC(=O)[C@H](CCC(N)=O)NC(=O)CNC(=O)[C@@H]2CCCN2C(=O)[C@H](C)NC(=O)[C@H](CCC(N)=O)NC(=O)CNC(=O)COCCOCCNC(=O)COCCOCCNC(=O)CC[C@H](NC(=O)CCCCCCCCCCCCCCCCC(=O)O)C(=O)O)CSSC[C@@H](C(=O)O)NC(=O)CNC(=O)[C@H](CC(C)C)NC(=O)CNC(=O)[C@H](CO)NC(=O)[C@H](CC(C)C)NC(=O)[C@H](CO)NC(=O)CNC1=O [compound 1458] ({C18 diacid-γGlu-AEEA-AEEA}-GQAPGQAPGAQKKGSSQGCFGLPLDRIGSLSGLGC-OH; disulfide 19-35),93.6
4,CC[C@H](C)[C@@H]1NC(=O)[C@H](CCCNC(=N)N)NC(=O)[C@H](CC(=O)O)NC(=O)[C@H](CC(C)C)NC(=O)[C@@H]2CCCN2C(=O)[C@H](CC(C)C)NC(=O)CNC(=O)[C@H](Cc2ccccc2)NC(=O)[C@@H](NC(=O)CNC(=O)[C@H](CCC(N)=O)NC(=O)[C@H](CO)NC(=O)[C@H](CO)NC(=O)CNC(=O)[C@H](CCCCN)NC(=O)[C@H](CCCCN)NC(=O)[C@H](CCC(N)=O)NC(=O)[C@H](C)NC(=O)CNC(=O)[C@H](CCCCN)NC(=O)[C@H](Cc2ccc(O)cc2)NC(=O)[C@H](CCCCN)NC(=O)[C@H](CCCNC(=N)N)NC(=O)[C@H](C)NC(=O)[C@@H]2CCCN2C(=O)[C@H](C)NC(=O)[C@H](CCC(N)=O)NC(=O)CNC(=O)COCCOCCNC(=O)COCCOCCNC(=O)CC[C@H](NC(=O)CC[C@H](NC(=O)CC[C@H](NC(=O)CC[C@H](NC(=O)CCCCCCCCCCCCCCCCC(=O)O)C(=O)O)C(=O)O)C(=O)O)C(=O)O)CSSC[C@@H](C(=O)O)NC(=O)CNC(=O)[C@H](CC(C)C)NC(=O)CNC(=O)[C@H](CO)NC(=O)[C@H](CC(C)C)NC(=O)[C@H](CO)NC(=O)CNC1=O [compound 1459] ({C18 diacid-γGlu-γGlu-γGlu-γGlu-AEEA-AEEA}-GQAPARKYKGAQKKGSSQGCFGLPLDRIGSLSGLGC-OH; disulfide 20-36),76.1
5,CC[C@H](C)[C@@H]1NC(=O)[C@H](CCCNC(=N)N)NC(=O)[C@H](CC(=O)O)NC(=O)[C@H](CC(C)C)NC(=O)[C@@H]2CCCN2C(=O)[C@H](CC(C)C)NC(=O)CNC(=O)[C@H](Cc2ccccc2)NC(=O)[C@@H](NC(=O)CNC(=O)[C@H](CCCCN)NC(=O)[C@H](CO)NC(=O)[C@H](CC(C)C)NC(=O)CNC(=O)[C@H](CCCCN)NC(=O)[C@H](CCCCN)NC(=O)[C@H](CCC(N)=O)NC(=O)[C@H](C)NC(=O)CNC(=O)[C@H](CCCCN)NC(=O)[C@H](Cc2ccc(O)cc2)NC(=O)[C@H](CCCCN)NC(=O)[C@H](CCCNC(=N)N)NC(=O)[C@H](C)NC(=O)COCCOCCNC(=O)COCCOCCNC(=O)CC[C@H](NC(=O)CC[C@H](NC(=O)CC[C@H](NC(=O)CC[C@H](NC(=O)CC[C@H](NC(=O)CC[C@H](NC(=O)CCCCCCCCCCCCCCCCC(=O)O)C(=O)O)C(=O)O)C(=O)O)C(=O)O)C(=O)O)C(=O)O)CSSC[C@@H](C(=O)O)NC(=O)CNC(=O)[C@H](CC(C)C)NC(=O)CNC(=O)[C@H](CO)NC(=O)[C@H](CC(C)C)NC(=O)[C@H](CO)NC(=O)CNC1=O [compound 1460] ({C18 diacid-γGlu-γGlu-γGlu-γGlu-γGlu-γGlu-AEEA-AEEA}-ARKYKGAQKKGLSKGCFGLPLDRIGSLSGLGC-OH; disulfide 16-32),32.4
6,CC[C@H](C)[C@@H]1NC(=O)[C@H](CCCNC(=N)N)NC(=O)[C@H](CC(=O)O)NC(=O)[C@H](CC(C)C)NC(=O)[C@@H]2CCCN2C(=O)[C@H](CC(C)C)NC(=O)CNC(=O)[C@H](Cc2ccccc2)NC(=O)[C@@H](NC(=O)CNC(=O)[C@H](CCC(N)=O)NC(=O)[C@H](CO)NC(=O)[C@H](CC(C)C)NC(=O)CNC(=O)[C@H](CCCCN)NC(=O)[C@H](CCCCN)NC(=O)[C@H](CCC(N)=O)NC(=O)[C@H](C)NC(=O)CNC(=O)[C@H](Cc2c[nH]cn2)NC(=O)[C@H](Cc2ccc(O)cc2)NC(=O)COCCOCCNC(=O)COCCOCCNC(=O)COCCOCCNC(=O)COCCOCCNC(=O)CC[C@H](NC(=O)CC[C@H](NC(=O)CCCCCCCCCCCCCCCCC(=O)O)C(=O)O)C(=O)O)CSSC[C@@H](C(=O)O)NC(=O)CNC(=O)[C@H](CC(C)C)NC(=O)CNC(=O)[C@H](CO)NC(=O)[C@H](CC(C)C)NC(=O)[C@H](CO)NC(=O)CNC1=O [compound 1461] ({C18 diacid-γGlu-γGlu-AEEA-AEEA-AEEA-AEEA}-YHGAQKKGLSQGCFGLPLDRIGSLSGLGC-OH; disulfide 13-29),28.9
